Earlier results on 3 compounds are cited in patent publication US10016375B2, “Materials and methods for controlling infections” (priority 2013, dated 2018).

The conditions of series [1]: 4% chlorhexidine gluconate applied to the eyes.
For series [2] the following is noted: three consecutive cataract operations.

On to `CC(=O)O.CC(=O)O.NC(=N\CCCCCC/N=C(N)/N=C(\N)Nc1ccc(Cl)cc1)/N=C(\N)Nc1ccc(Cl)cc1` [Chlorhexidine diacetate], for which the “Acute toxicity when applied to the eye” value is “highly acutely toxic”.

As to `[H]/N=C(\N/C(=N/[H])NCCCCCCNC(=N)NC(=N)Nc1ccc(Cl)cc1)Nc1ccc(Cl)cc1` [Chlorhexidine gluconate], in series [1], the “Corneal damage (bullous keratopathy, epithelial defects, corneal opacification) when applied to the eyes” value was “may produce corneal damage”.

Take `[H]/N=C(\N/C(=N/[H])NCCCCCCNC(=N)NC(=N)Nc1ccc(Cl)cc1)Nc1ccc(Cl)cc1` [chlorhexidine]: the “Effects in the retina or optic nerve after intraocular irrigation” value in series [2] is recorded as “No effects were observed”. The “Corneal endothelium damage after intraocular irrigation” value in series [2] (two of the three patients) is on record as “corneal endothelium damage was so severe that penetrating keratoplasty had to be performed”.
